Laboratory results reported in patent US20240409963A1, “Use of Inhibitors to Increase Efficiency of Crispr/CAS Insertions” (AstraZeneca AB, priority 2021, published 2024).

How the values were obtained:
HEK293T cells [1] = experiment: Different DNAPK inhibitors on precise gene editing outcomes, Example 8; conditions: for HDR to indel ratio / Precise KI fold increase: gINS + ssDNA; for Precise KI fold increase: vs DMSO; for MMEJ indels Mean / NHEJ indels Mean / Total editing Mean: sgRNA CD34 (gINS) + ssDNA, 70 hours post-transfection;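 as to all read-outs here: cells transfected with plasmids for SpCas9-EGFP, editing outcomes quantified from genomic DNA by deep targeted amplicon sequencing with bioinformatic analysis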
Description: Cells allowed to attach for 12 hours before transfection. Cells were transfected with DNA plasmids encoding for SpCas9-EGFP and a sgRNAs targeting CD34 (gINS) in the presence of single-stranded oligonucleotide donor (ssDNA). 70 hours post-transfection cell confluence and EGFP-based transfection efficiencies were determined with the Incucyte S3. Genomic DNA was extracted and editing outcome was analysed through deep-targeted amplicon sequencing using bioinformatic analysis.

HEK293T cells [2] = experiment: PolQ inhibitor ART558 titration on precise gene editing outcomes, Example 10; type: cell-based; conditions: HEK293T, with 1 μM AZD7648
Description: HEK293T cells were seeded into 96-well plates and allowed to attach for 20 hours.

| Compound | HDR to indel ratio (HEK293T cells [1]; DNAPK inhibitor 0.3125 μM) | Precise KI fold increase (HEK293T cells [1]; DNAPK inhibitor 0.3125 μM) | HDR to indel ratio (HEK293T cells [1]; DNAPK inhibitor 0.625 μM) | Precise KI fold increase (HEK293T cells [1]; DNAPK inhibitor 0.625 μM) | HDR to indel ratio (HEK293T cells [1]; DNAPK inhibitor 1.25 μM) | Precise KI fold increase (HEK293T cells [1]; DNAPK inhibitor 1.25 μM) | HDR to indel ratio (HEK293T cells [1]; DNAPK inhibitor 5 μM) | Precise KI fold increase (HEK293T cells [1]; DNAPK inhibitor 5 μM) | HDR to indel ratio (HEK293T cells [1]; DNAPK inhibitor 10 μM) | Precise KI fold increase (HEK293T cells [1]; DNAPK inhibitor 10 μM) | MMEJ indels Mean (HEK293T cells [1]; DNAPK inhibitor 0.3125 μM) | NHEJ indels Mean (HEK293T cells [1]; DNAPK inhibitor 0.3125 μM) | Total editing Mean (HEK293T cells [1]; DNAPK inhibitor 0.3125 μM) | MMEJ indels Mean (HEK293T cells [1]; DNAPK inhibitor 0.625 μM) | NHEJ indels Mean (HEK293T cells [1]; DNAPK inhibitor 0.625 μM) | Total editing Mean (HEK293T cells [1]; DNAPK inhibitor 0.625 μM) | MMEJ indels Mean (HEK293T cells [1]; DNAPK inhibitor 1.25 μM) | NHEJ indels Mean (HEK293T cells [1]; DNAPK inhibitor 1.25 μM) | Total editing Mean (HEK293T cells [1]; DNAPK inhibitor 1.25 μM) | MMEJ indels Mean (HEK293T cells [1]; DNAPK inhibitor 5 μM) | other results |
| --- | --- | --- | --- | --- | --- | --- | --- | --- | --- | --- | --- | --- | --- | --- | --- | --- | --- | --- | --- | --- | --- |
| Cc1nccnc1C(O)c1ccc(F)c(-c2ncnc3cc(N4CCOCC4)ccc23)c1 (centres unmarked) [TLR1, (4-fluoro-3-(7-morpholinoquinazolin-4-yl)phenyl) (3-methylpyrazin-2-yl) methanol] | 0.4 | 1.9 fold | 0.7 | 2.4 fold | 0.9 | 2.6 fold | 1.4 | 2.5 fold | 1.5 | 2.0 fold | 15.4 | 21.6 | 66.4 | 17.3 | 12.3 | 63.2 | 16.9 | 6.9 | 58.1 | 11.9 | NHEJ indels Mean (HEK293T cells [1]; DNAPK inhibitor 5 μM): 1.7; Total editing Mean (HEK293T cells [1]; DNAPK inhibitor 5 μM): 44.5; MMEJ indels Mean (HEK293T cells [1]; DNAPK inhibitor 10 μM): 9.2; NHEJ indels Mean (HEK293T cells [1]; DNAPK inhibitor 10 μM): 1.3; Total editing Mean (HEK293T cells [1]; DNAPK inhibitor 10 μM): 34.1 |
| Cc1cc2ncnn2cc1Nc1ncc2c(n1)N(C1CCOCC1)CC(=O)N2C [TLR2, 5-methyl-2-((7-methyl-[1,2,4]triazolo[1,5-a]pyridin-6-yl)amino)-8-(tetrahydro-2H-pyran-4-yl)-7,8 dihydropteridin-6 (5H)-one] | 0.6 | 2.3 fold | 0.9 | 2.5 fold | 1.0 | 2.3 fold | 1.1 | 2.6 fold | 1.1 | 2.1 fold | 16.7 | 13.5 | 62.8 | 17.1 | 6.1 | 56.8 | 16.0 | 3.2 | 49.7 | 16.2 | NHEJ indels Mean (HEK293T cells [1]; DNAPK inhibitor 5 μM): 2.1; Total editing Mean (HEK293T cells [1]; DNAPK inhibitor 5 μM): 50.9; MMEJ indels Mean (HEK293T cells [1]; DNAPK inhibitor 10 μM): 13.6; NHEJ indels Mean (HEK293T cells [1]; DNAPK inhibitor 10 μM): 1.8; Total editing Mean (HEK293T cells [1]; DNAPK inhibitor 10 μM): 42.4 |
| [2H]c1nc(C)nc([2H])c1-c1cc(NC[C@@H](C)c2cccc3c(C(=O)NC)ccnc23)ncn1 | 0.3 | 1.5 fold | 0.5 | 2.2 fold | 0.7 | 2.4 fold | 1.1 | 2.8 fold | 1.1 | 2.7 fold | 15.8 | 25.0 | 66.8 | 17.8 | 16.7 | 66.8 | 18.1 | 9.0 | 60.4 | 17.1 | NHEJ indels Mean (HEK293T cells [1]; DNAPK inhibitor 5 μM): 2.4; Total editing Mean (HEK293T cells [1]; DNAPK inhibitor 5 μM): 55.0; MMEJ indels Mean (HEK293T cells [1]; DNAPK inhibitor 10 μM): 17.3; NHEJ indels Mean (HEK293T cells [1]; DNAPK inhibitor 10 μM): 2.0; Total editing Mean (HEK293T cells [1]; DNAPK inhibitor 10 μM): 53.4 |
| Cc1cccc(N(C)C(=O)[C@@H]2[C@H](O)CCN2c2nc(C)cc(C(F)(F)F)c2C#N)c1 [ART558] |  |  |  |  |  |  |  |  |  |  |  |  |  |  |  |  |  |  |  |  | precise knock-in frequencies of the single-stranded oligonucleotide donor (HEK293T cells [2]; concentration-dependent): increases; unprecise DNA repair events (HEK293T cells [2]; with increasing inhibitor concentration): decreases |
